Read-outs that look alike come from different tables or passages of the source.
Experiments:
[1] = Clinical trial in healthy volunteers, population pharmacokinetic analysis; format: in vivo, human;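 also: population pharmacokinetic parameters fitted to plasma and urine data, interindividual variability modelled exponentially, inter-occasion variability tied additively, sensitivity analysis compares alternative models omitting data from one subject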
Method: After establishing a reasonable structural model, the impact of dose‐related effects was assessed as a categorical covariate on PK parameters through forward and backward selection processes. Model improvement was evaluated using the change in the objective function value (ΔOFV), with significance levels of 0.05 (ΔOFV ≤ −3.84) and 0.01 (ΔOFV ≤ −6.63). The stability and performance of the final model were evaluated graphically and statistically, using goodness‐of‐fit plots, nonparametric bootstrap analysis [32], and the visual predictive check (VPC) technique [33], as described earlier [28].
Interindividual variability was estimated for CLR, V1, V2, and V3 using an exponential model. Inter‐occasion variability for CLR, V1, and Q2 was linked to inter‐individual variability through an additive model. The residual variability in plasma and urine data was best described by proportional error models.
To evaluate its impact on the final parameter estimates, we used two approaches: (i) conducting a sensitivity analysis by comparing parameter estimates across three models—the final model, a model excluding early post-dose plasma samples from the subject, and a model excluding all data from this period for the subject.

OCT2 = test system: OCT2; parameters: method as in ref 15 Yang et al.; settings: rat kidneys; ref 15 Yang et al.; cited from earlier work
[2] = cited from earlier work
[3] = Clinical trial in healthy volunteers, adverse events; format: in vivo, human; settings: 12 healthy subjects, single i.v. doses 259 mg and 3235 mg
Method: The trial had two separate objectives, that is, (i) to assess dose linearity of iohexol pharmacokinetics for a lower dose (reported here) and (ii) to improve the assessment of creatinine volume of distribution by oral administration of creatinine in beef meat (will be reported separately). Building on the PK findings from a 3235 mg iohexol injection, we determined that the current quantification method is sufficiently sensitive to measure iohexol plasma concentrations corresponding to doses over 10 times lower, up to at least 20 h postadministration. Therefore, a 259 mg iohexol dose was selected for this study. […] Each participant was randomly assigned to one of six sequences, receiving iohexol intravenously at different single doses on separate occasions: (1) 259 mg iohexol without beef ingestion (defined as “fasting,” “test”); (2) 3235 mg iohexol fasting (“reference”); and (3) 3235 mg iohexol with beef ingestion (not reported here). The washout interval between administrations was 7 to 14 days. Adverse events were surveyed until the completion of the study.
Adverse events were monitored at multiple time points: within 1 hour before the administration of iohexol, and then at 10 minutes, 30 minutes, 1 hour, and 2 hours post-dose, as well as at the end of hospitalization for each period and during the end-of-study evaluation. Vital signs were recorded at the same time points as adverse events. Overall health was reassessed at the end of the study.

[4] = Model 1: excluding samples within 45 minutes after the test dose for the subject with delayed absorption
[5] = Model 2: excluding all data from the subject with delayed absorption when receiving the test dose
[6] = final model, entire dataset, n=12
[7] = final model, nonparametric bootstrap
[8] = one subject, test dose period with suspected paravenous administration, model with absorption phase

CC(=O)N(CC(O)CO)c1c(I)c(C(=O)NCC(O)CO)c(I)c(C(=O)NCC(O)CO)c1I (stereo not shown) [iohexol]
Effect of dose level (categorical covariate) on PK parameters ([1]; 259 mg vs 3235 mg): did not differ significantly | Inter-individual variability CLR estimate ([1]; Model 1): 14.4 CV% | Inter-individual variability V1 estimate ([1]; Model 1): 16.8 CV% | Inter-individual variability V2 estimate ([1]; Model 1): 15.1 CV% | Inter-individual variability V3 estimate ([1]; Model 1): 15.0 CV% | Inter-occasion variability CLR estimate ([1]; Model 1): 3.69 CV% | Inter-occasion variability Q2 estimate ([1]; Model 1): 23.7 CV% | Inter-occasion variability V1 estimate ([1]; Model 1): 4.82 CV% | Q1 estimate [1, 4]: 0.219 L/h | Q2 estimate [1, 4]: 5.53 L/h | V1 estimate [1, 4]: 8.91 L | V2 estimate [1, 4]: 1.54 L | V3 estimate [1, 4]: 4.30 L | Inter-individual variability CLR estimate ([1]; Model 2): 14.2 CV% | Inter-individual variability V1 estimate ([1]; Model 2): 17.2 CV% | Inter-individual variability V2 estimate ([1]; Model 2): 13.8 CV% | Inter-individual variability V3 estimate ([1]; Model 2): 13.5 CV% | Inter-occasion variability CLR estimate ([1]; Model 2): 2.33 CV% | Inter-occasion variability Q2 estimate ([1]; Model 2): 17.1 CV% | Inter-occasion variability V1 estimate ([1]; Model 2): 3.87 CV% | Q1 estimate [1, 5]: 0.227 L/h | Q2 estimate [1, 5]: 5.38 L/h | V1 estimate [1, 5]: 8.90 L | V2 estimate [1, 5]: 1.57 L | V3 estimate [1, 5]: 4.30 L | Interindividual variability CLR, point estimate ([1]; final model, entire dataset): 14.0 CV% | Interindividual variability V1, point estimate ([1]; final model, entire dataset): 16.6 CV% | Interindividual variability V2, point estimate ([1]; final model, entire dataset): 14.0 CV% | Interindividual variability V3, point estimate ([1]; final model, entire dataset): 15.5 CV% | Interoccasion variability CLR, point estimate ([1]; final model, entire dataset): 2.51 CV% | Interoccasion variability Q2, point estimate ([1]; final model, entire dataset): 29.2 CV% | Interoccasion variability V1, point estimate ([1]; final model, entire dataset): 6.23 CV% | Q1 point estimate [1, 6]: 0.221 L/h | Q2 point estimate [1, 6]: 5.84 L/h | V1 point estimate [1, 6]: 9.06 L | V2 point estimate [1, 6]: 1.56 L | V3 point estimate [1, 6]: 4.34 L | Interindividual variability CLR, bootstrap median (95% CI) [1, 7]: 13.5 (5.05–20.1) CV% | Interindividual variability V1, bootstrap median (95% CI) [1, 7]: 15.5 (6.88–23.1) CV% | Interindividual variability V2, bootstrap median (95% CI) [1, 7]: 13.4 (7.81–20.7) CV% | Interindividual variability V3, bootstrap median (95% CI) [1, 7]: 13.7 (5.57–19.2) CV% | Interoccasion variability CLR, bootstrap median (95% CI) [1, 7]: 2.44 (0.900–3.87) CV% | Interoccasion variability Q2, bootstrap median (95% CI) [1, 7]: 28.7 (6.99–65.8) CV% | Interoccasion variability V1, bootstrap median (95% CI) [1, 7]: 6.06 (1.55–10.2) CV% | Q1 bootstrap median (95% CI) [1, 7]: 0.219 (0.164–0.313) L/h | Q2 bootstrap median (95% CI) [1, 7]: 5.76 (4.11–8.23) L/h | V1 bootstrap median (95% CI) [1, 7]: 9.06 (8.18–10.1) L | V2 bootstrap median (95% CI) [1, 7]: 1.57 (1.36–1.87) L | V3 bootstrap median (95% CI) [1, 7]: 4.34 (3.81–4.99) L | CL renal ([1]; human, plasma and urine, intravenous, Model 1: excluding samples within 45 minutes after the test dose for the subject with delayed absorption, read-out: CLR estimate (converted)): 90.8 mL/min | CL renal ([1]; human, plasma and urine, intravenous, Model 2: excluding all data from the subject with delayed absorption when receiving the test dose, read-out: CLR estimate (converted)): 91.5 mL/min | CL renal ([1]; human, plasma and urine, intravenous, final model, entire dataset, n=12, read-out: CLR point estimate (converted)): 91.7 mL/min | CL renal ([1]; human, plasma and urine, intravenous, final model, nonparametric bootstrap, read-out: CLR bootstrap median (95% CI) (converted)): 91.7 mL/min | CL renal ([1]; human, plasma and urine, intravenous, final model, read-out: Individual empirical Bayesian estimates of CLR, median (range) (converted)): 87.5 mL/min | Vd ([1]; human, plasma and urine, intravenous, final model, read-out: Individual empirical Bayesian estimates of volume of distribution (sum of V1, V2, and V3), median (range)): 15.1 L | First-order absorption rate constant [1, 8]: 0.876 h⁻¹ | Relative bioavailability [1, 8]: 93.6% | Expression of OCT2 (OCT2): downregulated | Iohexol clearance ([2]; healthy adults, 95% CI 7.08–7.68 L/h, ref 44 Olsson et al.): 7.32 L/h | Median renal clearance ([2]; healthy adults, interquartile range 6.36–7.50, ref 39 Sterner et al.): 6.78 L/h/1.73 m^2 | Volume of distribution ([2]; healthy volunteers): 0.27 L/kg | Adverse events related to iohexol [3]: None of these were related to iohexol | Number of adverse events reported [3]: 9 | Subjects reporting adverse events [3]: 7 of 12
